Here are results for three molecules from paper PMC5107951 (Scientific Reports, 2016).

For orientation: IC50 means the concentration that gives 50% inhibition. Low readings indicate greater potency, high ones weaker potency.

For test [1], the target named is α7 nAChR (Rattus norvegicus, UniProt Q05941). Description: cell-based.
Test [2] deals with α7 nAChR (Homo sapiens, UniProt P36544). The test is described as follows: cell-based. It is filed as binding.

SMILES strings stand for the structures. Where a SMILES comes first, the peptide text is derived from it. Bridges are numbered along the chain shown (N, C = ends).

α7 nAChR (Rattus norvegicus, UniProt Q05941), sequence (Q05941 23-502 limits assumed): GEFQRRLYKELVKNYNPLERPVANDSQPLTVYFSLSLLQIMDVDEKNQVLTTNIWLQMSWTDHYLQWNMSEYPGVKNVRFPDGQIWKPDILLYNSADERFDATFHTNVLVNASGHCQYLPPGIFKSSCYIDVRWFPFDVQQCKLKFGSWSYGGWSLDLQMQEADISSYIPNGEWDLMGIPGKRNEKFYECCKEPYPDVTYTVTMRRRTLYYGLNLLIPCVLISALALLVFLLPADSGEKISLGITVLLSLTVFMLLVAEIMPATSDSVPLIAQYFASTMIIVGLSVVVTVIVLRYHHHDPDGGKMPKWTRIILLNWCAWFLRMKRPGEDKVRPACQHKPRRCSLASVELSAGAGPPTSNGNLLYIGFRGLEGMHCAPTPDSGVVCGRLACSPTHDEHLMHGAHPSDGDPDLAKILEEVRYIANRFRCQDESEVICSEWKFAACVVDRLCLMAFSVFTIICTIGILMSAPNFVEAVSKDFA
α7 nAChR (Homo sapiens, UniProt P36544), sequence (P36544 23-502 limits assumed): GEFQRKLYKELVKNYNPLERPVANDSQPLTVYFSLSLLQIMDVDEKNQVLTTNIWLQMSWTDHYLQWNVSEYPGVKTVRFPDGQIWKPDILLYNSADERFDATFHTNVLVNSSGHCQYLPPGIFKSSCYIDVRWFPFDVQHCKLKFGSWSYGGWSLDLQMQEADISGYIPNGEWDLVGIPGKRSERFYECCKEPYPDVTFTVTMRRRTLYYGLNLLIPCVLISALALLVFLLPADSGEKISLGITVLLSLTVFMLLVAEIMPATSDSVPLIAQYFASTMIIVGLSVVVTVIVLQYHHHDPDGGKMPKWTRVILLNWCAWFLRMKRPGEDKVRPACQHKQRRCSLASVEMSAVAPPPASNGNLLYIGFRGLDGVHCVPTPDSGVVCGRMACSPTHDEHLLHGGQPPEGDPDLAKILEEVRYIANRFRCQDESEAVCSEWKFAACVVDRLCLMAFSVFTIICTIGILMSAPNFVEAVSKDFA

Consider `CC(C)C[C@@H]1NC(=O)[C@H](CCCNC(=N)N)NC(=O)[C@@H]2CSSC[C@H](NC(=O)CN)C(=O)N[C@@H](CSSC[C@@H](C(N)=O)NC(=O)[C@H](Cc3ccc(O)cc3)NC(=O)[C@H](CCCNC(=N)N)NC(=O)[C@@H]3CCCN3C(=O)[C@H](CC(N)=O)NC(=O)[C@H](CC(N)=O)NC1=O)C(=O)N[C@@H](CO)C(=O)N[C@@H](CCCNC(=N)N)C(=O)N1CCC[C@H]1C(=O)N1CCC[C@H]1C(=O)N2` [PnIA[R5, R9, L10, R14]] (H-GCCSRPPCRLNNPRYC-NH2; disulfide 2-8, 3-16), for which the midpoint of inhibition in test [1], the IC50, lay at 17 ± 2 nM.
For the molecule `CC(C)C[C@@H]1NC(=O)[C@H](CCCNC(=N)N)NC(=O)[C@@H]2CSSC[C@H](NC(=O)CN)C(=O)N[C@@H](CSSC[C@@H](C(N)=O)NC(=O)[C@H](Cc3ccc(O)cc3)NC(=O)[C@H](CC(=O)O)NC(=O)[C@@H]3CCCN3C(=O)[C@H](CC(N)=O)NC(=O)[C@H](CC(N)=O)NC1=O)C(=O)N[C@@H](CO)C(=O)N[C@@H](CC(C)C)C(=O)N1CCC[C@H]1C(=O)N1CCC[C@H]1C(=O)N2` [PnIA[R9, L10]] (H-GCCSLPPCRLNNPDYC-NH2; disulfide 2-8, 3-16), the “displacement of [125I]-PnIA[R9, L10] by non-radioactive peptide” value in test [2] is on record as 100%. Moreover, the half-maximal inhibitory concentration (IC50) in test [1] was 27 ± 11 nM.
Regarding `CC(C)C[C@@H]1NC(=O)[C@H](CO)NC(=O)[C@@H]2CSSC[C@@H](C(N)=O)NC(=O)[C@H](Cc3ccc(O)cc3)NC(=O)[C@H](CC(=O)O)NC(=O)[C@@H]3CCCN3C(=O)[C@H](CC(N)=O)NC(=O)[C@H](CC(N)=O)NC(=O)[C@H](C)NC(=O)[C@H](CCCNC(=N)N)NC(=O)[C@H](CSSC[C@H](NC(=O)CN)C(=O)N2)NC(=O)[C@@H]2CCCN2C(=O)[C@@H]2CCCN2C1=O` [PnIA[R9]] (H-GCCSLPPCRANNPDYC-NH2; disulfide 2-8, 3-16), the results for the IC50 in test [2] and in test [1] were 1490 nM and 27 ± 10 nM, respectively.
